For 1 compound, IC50 results are on record in BindingDB's records for patent US20250074919 (Accro Bioscience (HK), 2025).

This test concerns the target T1, Interleukin-1 receptor-associated kinase 4 (Homo sapiens, UniProt Q9NWZ3).
T1 sequence (Q9NWZ3 whole entry): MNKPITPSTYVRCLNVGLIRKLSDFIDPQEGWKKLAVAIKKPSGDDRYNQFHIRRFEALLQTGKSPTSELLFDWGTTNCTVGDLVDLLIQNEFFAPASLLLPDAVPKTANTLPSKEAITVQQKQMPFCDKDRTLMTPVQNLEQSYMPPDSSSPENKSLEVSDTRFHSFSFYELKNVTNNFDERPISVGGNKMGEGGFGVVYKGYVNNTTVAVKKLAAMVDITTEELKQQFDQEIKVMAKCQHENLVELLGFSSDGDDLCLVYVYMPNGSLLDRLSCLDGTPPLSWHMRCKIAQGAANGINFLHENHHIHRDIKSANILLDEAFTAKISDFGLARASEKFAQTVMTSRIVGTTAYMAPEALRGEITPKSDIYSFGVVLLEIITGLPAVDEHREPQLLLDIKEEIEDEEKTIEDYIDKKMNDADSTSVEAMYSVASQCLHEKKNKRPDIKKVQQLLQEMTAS
The test can be described thus: Screening Assay Against IRAK4 with ATP. As for the experimental part:
Then prepare compounds for testing: Dilute the compound to 50× of the final desired highest inhibitor concentration in reaction by 100% DMSO. […] Transfer 10 μL of the compound from the source plate to a new 96-well plate (intermediate plate) and add 90 μL of Ix kinase buffer. Shake the mixture on the intermediate plate for 10 min. Transfer 5 μL of each well from the 96-well intermediate plate to a 384-well plate in duplicates. Add 10 μL of 2.5× enzyme solution to each well of the 384-well assay plate and incubate at room temperature for 10 min. Add 10 μL, of 2.5×FAM-labeled peptide and ATP solution and incubate at 28° C. for a period of time.

On to `Cn1cc(-c2cccc(NC(=O)c3cc4oc(N5CCOCC5)nc4nc3N3CCOCC3)n2)cn1` [US20250074919, Example A2], for which the IC50 – broadly, the point on the concentration scale where inhibition reaches its midpoint – is 0.045 µM.
